From patent US20160130234A1, “PHARMACEUTICAL COMPOSITIONS BASED ON PHOTOCHEMICALLY STABLE SILVER COMPLEXES, CHLOREXIDINE AND CATIONIC SURFACTANTS” (PAVIA FARMACEUTICI S.R.L., priority 2013, published 2016)

Columns and labels:
[1] = test system: Staphylococcus aureus (ATCC-6538) and Pseudomonas aeruginosa (ATCC-15442); assay: quantitative suspension test for bactericidal activity, UNI EN 1272:2009; format: cell-based
Protocol: The bactericidal activity was tested on aqueous solutions of the complex of Example 1, (i.e. where the ligand L coordinated to the silver ion is the 2-Mercapto-5-benzimidazolesulfonic acid sodium salt).
The bactericidal activity tests were carried out according to UNI EN 1272:2009 and UNI EN 13697:2001 standards, which makes reference to chemical disinfectants and antiseptics, by using the following test organism: Staphylococcus aureus (ATCC-6538), as representative of Gram-positive bacteria and Pseudomonas aeruginosa (ATCC-15442), as representative of Gram-negative bacteria.

sepsis = settings: burns treated with silver nitrate; decreased from 60%; cited from earlier work
[2] = test system: Staphylococcus epidermidis; settings: cited from earlier work

Compound	antimicrobial activity after exposure to ambient light ([1]; after exposure to ambient light, reduction of Ag^+ to Ag^∘)	reduction of bacterial count compared with the silver complex ([1]; solution of comparable concentration)	number of deaths that were a result of sepsis (sepsis)	development of resistance by Staphylococcus epidermidis [2]
O=[N+]([O-])[O-].[Ag+] [Silver Nitrate]	lose the antimicrobial activity	analogously	28%	
[H]/N=C(\N/C(=N/[H])NCCCCCCNC(=N)NC(=N)Nc1ccc(Cl)cc1)Nc1ccc(Cl)cc1 [chlorhexidine]				no evidence of resistance was observed
polyhexametylene biguanide				no evidence of resistance was observed
